2 molecules from US12161676B2, “Methods of use of islet cells” (CEDARS-SINAI MEDICAL CENTER, priority 2018, dated 2024) can be followed below.

The test system of the test is endocrine progenitors. Briefly: Differentiation of iPSC-derived endocrine progenitors towards immature beta cells, marker expression with tested reagent combinations. The following applies: addition of the reagent during differentiation of endocrine progenitors into beta cells. The class given is cell-based, human. How it is done: FIG. 31. Expression of DAPI, C-Peptide, Glucagon and NKX6.1 when testing various compounds at day 23.
FIG. 32. Measurement of DAPI, C-Peptide, Glucagon and NKX6.1 expression across tested compound combinations.
To further differentiate endocrine progenitors into beta cells, various reagents were tested to determine which combinations are most efficient in generating immature beta cells. T3 was selected for its role in beta cell survival, function, and identity Alk5 inhibitor II was selected for its specificity in inhibition of TGF beta receptor 1. XXI was selected as Notch inhibitor to exit cell cycle and as a driving force between endocrine vs duct phenotypes. Noggin is selected for BMP inhibition due to evidence that inhibition of this pathway is important for endocrine differentiation. Addition of notch inhibitor XXI reduced NKX6.1 levels and increased glucagon levels. […] The aforementioned growth factors can be used in combination for immature beta cell production. Thereafter, there is a need for a maturation step to induce glucose sensitivity on immature induced-islet cells

For noggin, the c-peptide levels result is recorded as “slightly increases”.

As for `C[C@H](NC(=O)Cc1cc(F)cc(F)c1)C(=O)N[C@H]1N=C(c2ccccc2)c2ccccc2N(C)C1=O` [XXI], the NKX6.1 levels result is given as “reduced” and the glucagon levels result is on record as “increased”.
